For the data set the following is noted: pH 7.4.
Method: The solutions were put into a chamber of a Brookfield DV-III+ Rheometer equipped with a thermostatic bath (TC-501). The sol-gel phase transition was observed while raising the temperature at the rate of 0.04° C./min and a shear rate of 0.1 to 1.7 per second.
(maximum) gelling temp. (temperature)” means the temperature where the viscosity of the polymer solution reaches the maximum point, and the term “Max. gel solidity” means the maximum viscosity of the polymer solution.
Turning to “poly[(isoleucine ethyl ester)(aminomethoxypolyethylene glycol 550)(aminoethylmethacrylate)phosphazene] [Example 4]”, the Max. gelling temp. worked out at 39 °C. As to “[(isoleucine ethyl ester)(aminomethoxypolyethylene glycol 550)(aminoethylmethacrylate)phosphazene] [Example 2]”, the Max. gelling temp. turned out to be 28 °C. For “poly[(isoleucine ethyl ester)(aminomethoxypolyethylene glycol 550)(tyramine)phosphazene] [Example 18]”, the Max. gelling temp. worked out at 34 °C. Consider “poly[(isoleucine ethyl ester)(aminomethoxypolyethylene glycol 550)(cysteine ethyl ester)phosphazene] [Example 10]”, for which the Max. gelling temp. is 32 °C.

Values taken from US8313771B2, “Phosphazene hydrogels with chemical corss-link, preparation method thereof and use thereof” (Korea Institute of Science and Technology, priority 2007, dated 2012).
